Assay results from article PMC4709569, “A Novel Naturally Occurring Class I 5-Enolpyruvylshikimate-3-Phosphate Synthase from Janibacter sp. Confers High Glyphosate Tolerance to Rice” (Scientific Reports, 2016).

Legend:
aroAE. coli [1] = molecular target: T1, aroAE. coli (Escherichia coli, UniProt P0A6D3); test: malachite green phosphate release, dose-response fit; assay type: biochemical
T1 construct: gene aroA; full length; pGEX-6p-1 BamHI/EcoRI, E. coli BL21(DE3); GST tag removed by 3C protease; similar size to aroAJ. sp (47 kDa on gel)
T1 sequence (P0A6D3 whole entry): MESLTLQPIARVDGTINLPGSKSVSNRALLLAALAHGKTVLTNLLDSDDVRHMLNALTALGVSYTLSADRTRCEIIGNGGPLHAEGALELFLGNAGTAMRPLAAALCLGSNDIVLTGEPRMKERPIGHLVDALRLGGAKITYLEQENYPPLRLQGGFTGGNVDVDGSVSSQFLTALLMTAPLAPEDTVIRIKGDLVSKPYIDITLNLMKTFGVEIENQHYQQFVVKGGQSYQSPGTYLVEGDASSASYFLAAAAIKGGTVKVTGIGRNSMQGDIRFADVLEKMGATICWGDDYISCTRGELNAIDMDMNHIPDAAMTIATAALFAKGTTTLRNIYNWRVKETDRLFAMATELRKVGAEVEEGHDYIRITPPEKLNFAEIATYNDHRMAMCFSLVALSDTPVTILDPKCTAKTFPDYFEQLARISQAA
Excerpt: malachite green phosphate release, dose-response fit on aroAE. coli

aroAJ. sp [2] = molecular target: T2, aroAJ. sp (Janibacter sp. YB324, UniProt Z9JWC7BZZ5); test: malachite green phosphate release, Lineweaver-Burk; assay type: biochemical; conditions: competitive with respect to PEP; PEP 0.067-0.5 mM, S3P 1 mM; glyphosate 0-5 mM; 50 mM Hepes pH 7.0, 28 °C, KCl present
T2 construct: pGEX-6p-1 BamHI/EcoRI, E. coli BL21(DE3); GST tag removed by 3C protease; HTCC2649
Excerpt: malachite green phosphate release, Lineweaver-Burk on aroAJ. sp

aroAE. coli [3] = molecular target: T1, aroAE. coli; test: malachite green phosphate release, Lineweaver-Burk; assay type: biochemical; conditions: read-out: Ki ^c
Excerpt: malachite green phosphate release, Lineweaver-Burk on aroAE. coli

aroAJ. sp [4] = molecular target: T2, aroAJ. sp; test: malachite green phosphate release, dose-response fit; assay type: biochemical; conditions: 1 mM PEP, 1 mM S3P; glyphosate 0.0001-100 mM; 50 mM Hepes pH 7.0, 28 °C, KCl present
Excerpt: malachite green phosphate release, dose-response fit on aroAJ. sp

C=C(OP(=O)(O)O)C(=O)O = test: purified protein; conditions: PEP 0.05-1 mM, S3P fixed 1.0 mM, 50 mM Hepes pH 7.0, 28 °C
[5] = test system: O=C(O)C1=C[C@@H](OP(=O)(O)O)[C@@H](O)[C@H](O)C1; test: purified protein; conditions: S3P 0.05-1 mM, PEP fixed 1.0 mM, 50 mM Hepes pH 7.0, 28 °C

Row | Molecule | IC50 (aroAE. coli [1]) [µM] | Ki (aroAJ. sp [2]) [µM] | Ki (aroAE. coli [3]) [µM] | IC50 (aroAJ. sp [4]) [µM] | Km (C=C(OP(=O)(O)O)C(=O)O) [µM] | Km [5] [µM]
1 | O=C(O)CNCP(=O)(O)O [glyphosate] | 40 ± 10 | 373 ± 50 | 0.9 ± 0.09 | 3600 ± 200 |  | 
2 | aroAE. coli (Escherichia coli K-12) |  |  |  |  | 60 ± 7 | 115 ± 10
